Key:
[1] = Acute toxicity test (LD50); conditions: mouse, in vivo, male mice
NF-κB = test: Gel shift assay: inhibition of NF-κB binding activation in U1 cells; type: cell-based, human; conditions: for inhibition at 0.1 µg/mL / inhibition at 1 µg/mL: Homo sapiens
Experimental: Inhibition Action on NF-κB Binding Activation
In order to examine the action of a test compound cepharanthine to inhibit NF-κB binding activation, U1 [a cell strain derived from HIV-1 (HIV type 1) latent infection human monocyte] cells were stimulated or not stimulated with phorbol 12-myristate 13-acetate (PMA) in the presence or absence of the test compound, and the following assay was carried out using a nucleoprotein extract obtained from the resulting cells.
Gel shift assay was carried out using an NF-κB probe of HIV-1. A double-stranded DNA fragment of an NF-κB site-like sequence, 5'-AGTTGAGGGGACTTTCCCAGGC-3' from the transcription initiation point, was used as the NF-κB probe of HIV-1. The 5'-terminus of the probe was radiation-labeled with ^32 p in the usual way using [γ-^32 P]ATP and polynucleotide kinase. […] At the same time, a sample in which a large quantity of non-labeled probe was added to the reaction solution was prepared and the same reaction was carried out as a competitive assay. Thereafter, the ^32 P-labeled NF-κB probe was added thereto to carry out 20 minutes of binding reaction at room temperature. After the reaction, 4% unmodified polyacrylamide gel electrophoresis was carried out in order to separate the DNA-NF-κB complex from free oligonucleotide. The gel was subjected to autoradiography, and NF-κB in the nucleoprotein extract was determined by an image analyzer (BIO-RAD, Model GS-700 Imaging Densitometer).
The action of the test compound to inhibit activation of NF-κB binding by PMA stimulation of U1 cells (inhibition ratio, %) is shown in Table 1.
V3: Cepharanthine control; reaction (2.5 hours) of U1 cells in the
presence of 0.1 μg/ml of cepharanthine
V4: Cepharanthine control; reaction (2.5 hours) of U1 cells in the
presence of 1 μg/ml of cepharanthine
V6: Reaction (2 hours) of U1 cells in the presence of 0.1 μg/ml of
cepharanthine + stimulation (0.5 hour) with 10 ng/ml of PMA
V7: Reaction (2 hours) of U1 cells in the presence of 1 μg/ml of
**: V6, V7, V8 and V9 vs. V5

HIV-1 LTR = HIV-1 LTR CAT assay: inhibition of HIV-1 LTR transcription activity in HeLa cells; type: cell-based; conditions: 48 hours; for % Inhibition: vs. V3 (PMA)
Experimental: Inhibition action on HIV-1 LTR transcription activity
In order to examine effect of a test compound cepharanthine on the HIV-1 transcription activity, CAT assay was carried out by the following method.
A plasmid in which chloramphenicol acetyltransferase (CAT) gene has been linked to the downstream of HIV-1 LTR gene was introduced by lipofection into HeLa cells adjusted to a density of 1×10^6 cells, and the resulting cells were cultured in the presence or absence of the test compound and phorbol 12-myristate 13-acetate (PMA). After 48 hours of the culturing, the cells were collected and washed to prepare a cell extract using a freeze-thawing method. The thus prepared cell extract was allowed to react with acetyl CoA and [^14 C]-labeled chloramphenicol (CM), and the thus formed acetyl[^14 C]CM was separated by a thin layer chromatography, subjected to autoradiography and then […] measured using an image analyzer (BIO-RAD, Model GS-700 Imaging Densitometer).
V4: HeLa cells were cultured in the presence of cepharanthine (0.1
μg/ml) + PMA (10 ng/ml)
V5: HeLa cells were cultured in the presence of cepharanthine (1 μg/ml

[2] = 0.1 μg/ml, 2 hours + PMA 10 ng/ml, 0.5 hour
[3] = 1 μg/ml, 2 hours + PMA 10 ng/ml, 0.5 hour

Structure (SMILES): COc1cc2c3cc1Oc1c(OC)c(OC)cc4c1[C@@H](Cc1ccc(O)c(c1)Oc1ccc(cc1)C[C@@H]3N(C)CC2)N(C)CC4 [berbamine]
- LD50 ([1]; intravenous): 18.8 mg/kg

Structure (SMILES): COc1cc2c3cc1Oc1c4c(cc5c1[C@H](Cc1ccc(cc1)Oc1cc(ccc1O)C[C@H]3N(C)CC2)N(C)CC5)OCO4 [cepharanoline]
- LD50 ([1]; intravenous): 34.3 mg/kg

Structure (SMILES): COc1ccc2cc1Oc1ccc(cc1)C[C@H]1c3c(cc4c(c3Oc3cc5c(cc3OC)CCN(C)[C@@H]5C2)OCO4)CCN1C [cepharanthine]
- Area (NF-κB; [2]): 70.45 mm × mm
- Average (OD) (NF-κB; [2]): 0.491 OD
- Labeled amount (NF-κB; [2]): 34.59 OD × mm × mm
- Area (NF-κB; 0.1 μg/ml, 2.5 hours, no PMA): 70.53 mm × mm
- Average (OD) (NF-κB; 0.1 μg/ml, 2.5 hours, no PMA): 0.447 OD
- Labeled amount (NF-κB; 0.1 μg/ml, 2.5 hours, no PMA): 31.53 OD × mm × mm
- Area (NF-κB; [3]): 50.63 mm × mm
- Average (OD) (NF-κB; [3]): 0.490 OD
- Labeled amount (NF-κB; [3]): 24.81 OD × mm × mm
- Area (NF-κB; 1 μg/ml, 2.5 hours, no PMA): 69.15 mm × mm
- Average (OD) (NF-κB; 1 μg/ml, 2.5 hours, no PMA): 0.442 OD
- Labeled amount (NF-κB; 1 μg/ml, 2.5 hours, no PMA): 30.56 OD × mm × mm
- inhibition at 0.1 µg/mL (NF-κB; 0.1 μg/ml, 2 hours + PMA 10 ng/ml, 0.5 hour, vs. V5 (PMA)): 24.7%
- inhibition at 0.1 µg/mL (NF-κB; 0.1 μg/ml, 2.5 hours, no PMA, vs. V2 (untreated U1 cells)): 10.9%
- inhibition at 1 µg/mL (NF-κB; 1 μg/ml, 2 hours + PMA 10 ng/ml, 0.5 hour, vs. V5 (PMA)): 46%
- inhibition at 1 µg/mL (NF-κB; 1 μg/ml, 2.5 hours, no PMA, vs. V2 (untreated U1 cells)): 13.7%
- Area (HIV-1 LTR; 0.1 μg/ml + PMA (10 ng/ml)): 54.31 mm × mm
- Average (OD) (HIV-1 LTR; 0.1 μg/ml + PMA (10 ng/ml)): 0.892 OD
- Labeled amount (HIV-1 LTR; 0.1 μg/ml + PMA (10 ng/ml)): 48.44 OD × mm × mm
- % Inhibition (HIV-1 LTR; 0.1 μg/ml + PMA (10 ng/ml)): 33.1%
- Area (HIV-1 LTR; 1 μg/ml + PMA (10 ng/ml)): 41.00 mm × mm
- Average (OD) (HIV-1 LTR; 1 μg/ml + PMA (10 ng/ml)): 0.867 OD
- Labeled amount (HIV-1 LTR; 1 μg/ml + PMA (10 ng/ml)): 35.55 OD × mm × mm
- % Inhibition (HIV-1 LTR; 1 μg/ml + PMA (10 ng/ml)): 50.9%
- LD50 ([1]; intravenous): 47 mg/kg
- LD50 ([1]; oral): 3410 mg/kg

Structure (SMILES): COc1cc2c3c(c1OC)Oc1ccc(cc1)C[C@@H]1c4c(cc(OC)c(OC)c4Oc4ccc(cc4)C[C@H]3N(C)CC2)CCN1C [cycleanine]
- LD50 ([1]; intravenous): 62.5 mg/kg

Structure (SMILES): COc1ccc2cc1Oc1ccc(cc1)C[C@H]1c3c(cc(OC)c(O)c3Oc3cc4c(cc3OC)CCN(C)[C@@H]4C2)CCN1C [homoaromoline]
- LD50 ([1]; intravenous): 42.4 mg/kg

Structure (SMILES): COc1ccc2cc1Oc1ccc(cc1)C[C@H]1c3cc(c(OC)cc3CCN1C)Oc1c(OC)c(OC)cc3c1[C@@H](C2)N(C)CC3 [isotetrandrine]
- LD50 ([1]; intravenous): 32.5 mg/kg
